Laboratory results: ChEMBL document CHEMBL3507680, “University of Dundee, Gates Library screen for HepG2 cell viability”

Assay: Human HepG2 cell viability assay in 384 well format
Assay type: toxicity, cell-based
Set-up: dose 125 nL, time 70.5 hour; cytotoxicity at 70.5 h: concentration not given beside the values
Conditions: HepG2 cells, read-out: Inhibition

O=C(CCNC1(c2nccs2)CCCC1)N1CCOCC1
cytotoxicity at 70.5 h: 7.56%

CC(NCCNS(=O)(=O)c1cccc(Cl)c1)C1CCOCC1 (stereo not given)
cytotoxicity at 70.5 h: -6.77%

COc1ccnc(N2CCCN(Cc3ncc(C(C)C)o3)CC2)n1
cytotoxicity at 70.5 h: -4.8%

O=C(NCCNC1CCN(c2nccs2)CC1)c1cccs1
cytotoxicity at 70.5 h: -9.14%

O=C(Cn1cc(C2CC2)nn1)N(Cc1cccs1)CC1CCCO1 (stereo not given)
cytotoxicity at 70.5 h: 10.4%

CNS(=O)(=O)c1ccc(CNC(=O)C2CCCO2)cc1 (stereo not given)
cytotoxicity at 70.5 h: 27.2%

N#Cc1ccc(NCCC(=O)N2CCCc3ccccc32)nc1
cytotoxicity at 70.5 h: -6.4%

CN(C)C(=O)CNC(=O)c1cc2ccccc2nc1N1CCCC1
cytotoxicity at 70.5 h: -7.99%

O=C(NCCCn1cccn1)c1nc2ccccc2[nH]1
cytotoxicity at 70.5 h: -10.1%

Cn1cc(CCNC(=O)c2cc3ccccc3nc2N2CCCC2)cn1
cytotoxicity at 70.5 h: 3.18%

CC(C)NC(=O)NC(C)c1nc(-c2ccccc2)cs1 (stereo not given)
cytotoxicity at 70.5 h: -6.77%

CC(NC(=O)NC1CC1)c1nc(-c2ccccc2)cs1 (stereo not given)
cytotoxicity at 70.5 h: -8.69%

COc1ccc2c(c1)NC(=O)C2OC(=O)Cc1ccccc1C (stereo not given)
cytotoxicity at 70.5 h: 31.3%

Cn1cc(NS(=O)(=O)CC2CCCCO2)cn1 (stereo not given)
cytotoxicity at 70.5 h: -8.18%

O=S(=O)(CC1CCCCO1)Nc1cnn(CC(F)F)c1 (stereo not given)
cytotoxicity at 70.5 h: -7.78%

Cn1nc2c(cc1=O)CN(c1ncnc3sccc13)CC2
cytotoxicity at 70.5 h: 5.63%

CCn1nc2c(cc1=O)CN(c1ncnc3sccc13)CC2
cytotoxicity at 70.5 h: -11.4%

Cc1nc(CNc2cccc(Cl)c2Cl)cs1
cytotoxicity at 70.5 h: 16.5%

CC(C)(C)CCCC(=O)Nc1ccnn1C1CCS(=O)(=O)C1 (stereo not given)
cytotoxicity at 70.5 h: -6.88%

Cc1c(COC(C)C)cccc1NC(=O)N1CCCC(CO)C1 (stereo not given)
cytotoxicity at 70.5 h: -3.17%

Cc1nc(C(=O)NS(=O)(=O)c2cccc(C#N)c2)cs1
cytotoxicity at 70.5 h: 17.6%

COc1cc(CNc2nc(N3CCOCC3)ns2)cc(OC)c1OC
cytotoxicity at 70.5 h: -5.63%

Cc1csc(N2CCCN(c3cc(C)nc(C)c3C#N)CC2)n1
cytotoxicity at 70.5 h: -4%

Cc1cc(N2CCCC2)c(C#N)c(C)n1
cytotoxicity at 70.5 h: 17.6%

Cc1ccccc1C(NC(=O)NCC1(CO)CC1)C1CC1 (stereo not given)
cytotoxicity at 70.5 h: -1.18%

O=C(c1ccon1)N1CCN(c2ccncc2Cl)CC1
cytotoxicity at 70.5 h: -4.94%

Cc1cccc(CCC(=O)Nc2ccnn2C2CCS(=O)(=O)C2)c1 (stereo not given)
cytotoxicity at 70.5 h: 17%

COc1c(Cl)cccc1NCc1csc(C)n1
cytotoxicity at 70.5 h: -8.65%

CN(CCCNC(=O)C1CCc2cn[nH]c2C1)c1ccccc1 (stereo not given)
cytotoxicity at 70.5 h: -4.99%

CCOC(C)c1nc(CNc2cccc(Cl)c2OC)cs1 (stereo not given)
cytotoxicity at 70.5 h: 8.97%

Cc1csc(CNC(=O)NCC(C)Cn2nc(C)cc2C)n1 (stereo not given)
cytotoxicity at 70.5 h: -5.06%

O=C(Cc1cccnc1)NCCS(=O)(=O)c1ccccc1F
cytotoxicity at 70.5 h: -7.32%

CCC(NCCn1cc(C)cn1)C(=O)Nc1cc(C)on1 (stereo not given)
cytotoxicity at 70.5 h: 10.8%

CSCCC(NC(N)=O)C(=O)NCc1cnn(-c2ccccc2)c1 (stereo not given)
cytotoxicity at 70.5 h: 8.76%

CCn1cnnc1CNC(=O)N1CCOC(c2ccc(F)cc2)C1 (stereo not given)
cytotoxicity at 70.5 h: -3.32%

CC(Cc1cccc(F)c1)C(=O)NS(=O)(=O)c1cnn(C)c1 (stereo not given)
cytotoxicity at 70.5 h: -1.2%

O=C(CC1CCCC1)NCCNCc1cccc2c1OCCO2
cytotoxicity at 70.5 h: 4.62%

O=C(Nc1ccncc1)NC1CCN(c2ccccc2OC(F)F)C1 (stereo not given)
cytotoxicity at 70.5 h: 1.15%

COC(CNC(=O)c1ccc[nH]1)c1cccc(Cl)c1 (stereo not given)
cytotoxicity at 70.5 h: 10.5%

CCN(Cc1ccoc1)c1ncc(S(N)(=O)=O)s1
cytotoxicity at 70.5 h: -7.46%

Cc1cc(CNCC2(O)CCOCC2)ccc1Br
cytotoxicity at 70.5 h: 4.13%

O=C(Nc1ccccn1)NC1CCN(c2ccccc2OC(F)F)C1 (stereo not given)
cytotoxicity at 70.5 h: -2.08%

COCCN1CCC(NC(=O)C/C=C/c2ccc(C(C)C)cc2)CC1
cytotoxicity at 70.5 h: 2.87%

CC(C)c1ccc(/C=C/CC(=O)NC2CCN(C(N)=O)CC2)cc1
cytotoxicity at 70.5 h: -9.67%

CC(C(=O)NC1(C#N)CCCCC1)N1CCc2c(ncn2C2CC2)C1 (stereo not given)
cytotoxicity at 70.5 h: -8.12%

CCc1nc(CCNc2ncccc2C#N)sc1C
cytotoxicity at 70.5 h: -8.12%

Cc1cc(NC(=O)C(C)NCCn2cccn2)no1 (stereo not given)
cytotoxicity at 70.5 h: -0.681%

O=C(NCCNCc1cccc2c1OCCCO2)C1CCCC1
cytotoxicity at 70.5 h: 14.5%

COCCN1CCC(CNC(=O)c2ccnc(-n3ccnc3)c2)CC1
cytotoxicity at 70.5 h: -0.309%

CN(CCOc1ccc(F)cc1)S(=O)(=O)c1cnn(C)c1
cytotoxicity at 70.5 h: -8.4%

CC(NC(=O)NCCCn1ccnc1)c1nncn1C (stereo not given)
cytotoxicity at 70.5 h: -2.89%

NC(=O)C1CCN(C(=O)NC2CCc3cc(Cl)ccc32)CC1 (stereo not given)
cytotoxicity at 70.5 h: -7.29%

CC1CCN(C(=O)c2occc2COc2cccc(C#N)c2)CC1
cytotoxicity at 70.5 h: 8.42%

COCCN(Cc1ccc(F)cc1Cl)C(=O)c1ccccn1
cytotoxicity at 70.5 h: 9.84%

CCCc1n[nH]c(C2CN(C(=O)Cc3ccc(C)nc3)CCO2)n1 (stereo not given)
cytotoxicity at 70.5 h: -1.25%

CN(Cc1cnn(C)c1)C1CCCN(Cc2noc(C3CC3)n2)C1 (stereo not given)
cytotoxicity at 70.5 h: 50.1%

CC1(NC(=O)Cc2csc(NC(=O)c3ccccc3)n2)CCS(=O)(=O)C1 (stereo not given)
cytotoxicity at 70.5 h: -71.2%

CCSc1cc(C(=O)NCc2ccc(C(=O)NC)cc2)ccn1
cytotoxicity at 70.5 h: -81.1%

O=C(NCCCn1cccn1)C1(c2cccc(Cl)c2)CC1
cytotoxicity at 70.5 h: 55.5%

CC(CN1CCCC1=O)NC(=O)c1ccc(-c2ccco2)[nH]c1=O (stereo not given)
cytotoxicity at 70.5 h: -96.6%

Cc1ncc2c(n1)CN(Cc1nc(C)c(C)o1)CC2
cytotoxicity at 70.5 h: -100%

COCCOc1nc(-c2ccccc2Cl)no1
cytotoxicity at 70.5 h: -78.8%

CC1(NC(=O)Cc2csc(-c3ccccc3Cl)n2)CCS(=O)(=O)C1 (stereo not given)
cytotoxicity at 70.5 h: -88.9%

Cc1cc(NC2CCc3ncnn3C2)n2ncnc2n1 (stereo not given)
cytotoxicity at 70.5 h: -106%

Cc1n[nH]c(C2CN(CC(=O)NCCc3ccccc3C)CCO2)n1 (stereo not given)
cytotoxicity at 70.5 h: -109%

Cc1n[nH]c(C2CN(CC(=O)NCc3cccs3)CCO2)n1 (stereo not given)
cytotoxicity at 70.5 h: -86.1%

O=C(NCc1ccco1)N1CCC(n2ccc(C(F)(F)F)n2)CC1
cytotoxicity at 70.5 h: -82.9%

CCNC(=O)N1CCC(n2ccc(C(F)(F)F)n2)CC1
cytotoxicity at 70.5 h: 38.9%

COCC(C)NC(=O)NCCCc1cc(N)n(-c2ccccc2)n1 (stereo not given)
cytotoxicity at 70.5 h: -108%

Cc1n[nH]c(C2CN(CC(=O)NCCc3ccccc3)CCO2)n1 (stereo not given)
cytotoxicity at 70.5 h: 9%

CC(OCC(F)(F)F)C(=O)N1CCCC1 (stereo not given)
cytotoxicity at 70.5 h: -61.3%

CCOc1cc(CN(C)CC(C)(C)O)ccc1OC(F)F
cytotoxicity at 70.5 h: 4.76%

O=C(c1cc(Cl)c2c(c1)OCO2)N1CCN(c2ncccn2)CC1
cytotoxicity at 70.5 h: 30.1%

O=S(=O)(NCC1COc2ccccc2C1)N1CCOCC1 (stereo not given)
cytotoxicity at 70.5 h: -3.96%

O=C(c1ccc(O)c(Cl)c1)N1CCN(c2nccs2)CC1
cytotoxicity at 70.5 h: -9.18%

Cc1ccc(C(=O)NC2CCN(Cc3noc(C(C)(C)C)n3)CC2)s1
cytotoxicity at 70.5 h: -14.3%

Cc1ccc(C(=O)NC2CCN(Cc3noc(C(C)C)n3)CC2)s1
cytotoxicity at 70.5 h: -8.2%

CCc1noc(CN2CCC(NC(=O)c3ccc(C)s3)CC2)n1
cytotoxicity at 70.5 h: -9.12%

Cc1cc(CN2CCN(C(=O)C(C(C)C)n3cncn3)CC2)on1 (stereo not given)
cytotoxicity at 70.5 h: -10.4%

Cc1ccc(-n2nnc(CC(=O)N3CCN(C(C)C)CC3)c2C)cc1
cytotoxicity at 70.5 h: -10.5%

Cc1cccc(C)c1OCC(O)CNCc1c(C)nn(C)c1N(C)C (stereo not given)
cytotoxicity at 70.5 h: -4.45%

Cc1c(CC(=O)N2CCN(C(C)C)CC2)nnn1-c1ccccc1
cytotoxicity at 70.5 h: 23.6%

Cc1cccc(OCC(O)CNCc2c(C)nn(C)c2N(C)C)c1 (stereo not given)
cytotoxicity at 70.5 h: -8.26%

CC(C)C(C(=O)N1CCN(Cc2ccccn2)CC1)n1cncn1 (stereo not given)
cytotoxicity at 70.5 h: -10.2%

NC1(c2nc(C(F)(F)F)cc(=O)[nH]2)CCCCC1
cytotoxicity at 70.5 h: 0.93%
